This is an account of results in US10022389B2, “Prophylactic or therapeutic drug for constipation” (TAISHO PHARMACEUTICAL CO., LTD., priority 2013, dated 2018).

Format in all cases: in vivo, SD/IGS rats
Data set [1] deals with rats with loperamide-induced constipation. Put plainly: Test 2: ameliorating effect on loperamide-induced constipation. To be noted: loperamide (5 mg/kg p.o.) constipation model rats, oral in 0.5% MC. Here is the method:
Test 2: Ameriolating Effect on Loperamide-Induced Constipation
The effects on constipation as induced by loperamide which suppresses the propulsion of the digestive tract's contents and the secretion of intestinal juice were investigated.
SD/IGS rats (6-wk old; CHARLES RIVER LABORATORIES JAPAN, INC.) in groups, each consisting of one head per cage, were kept in a day-and-night reversal room for 11 days. The rats were fasted for about 16 hours and orally administered 0.5% MC suspended loperamide at a dose of 5 mg/5 mL/kg body weight to prepare constipation models. The normal group was orally administered on 0.5% MC only. […] Immediately after the administration of compound (I), 5 g of a standard diet (MF diet; ORIENTAL YEAST CO., LTD.) was applied and thereafter, a stool recovery tray was placed under each cage and starting 2 hours after the administration, stools were recovered every two hours until after 12 hours; the appearance of the recovered stools was observed and their weight was measured. To determine their moisture content, the stools were measured for their wet weight, dried for at least 8 hours at 100° C., measured for dry weight, and its proportion (%) to the wet weight was calculated. […]

A short description of data set [2]: Test 3: percentage of compound (I) remaining unaltered in rat's digestive tract. The following applies: 1 mg/kg oral; for Remaining unaltered, cecum/large intestine (including the contents), relative to dose / Remaining unaltered, small intestine's contents, relative to dose / Remaining unaltered, small intestine, relative to dose / Remaining unaltered, total, relative to dose: average of 4 cases ± S.D. Here is the method: Test 3: Percentage of Compound (I) Remaining Unaltered in Rat's Digestive Tract
Seven-week old SD/IGS rats (CHARLES RIVER LABORATORIES JAPAN, INC.; male; fasted) were orally administered compound (I) (1 mg/kg) formulated with an aqueous solution of 0.5% CMC-Na (carboxymethylcellulose sodium salt). One, four and seven hours after the drug administration, the rats were euthanized under anesthetization with ether and their small intestine, cecum, and large intestine were removed. The contents of the small intestine were recovered by infusing the small intestine with 20 mL of physiological saline. After washing the tissue's surface with physiological saline, the tissues and the recovered contents were measured for their weight and homogenized under cooling with ice in the presence of added 4 volumes of purified water. The homogenate was deproteinated in the presence of an added acetonitrile/methanol solution containing an internal standard and, thereafter, the supernatant was analyzed by LC-MS/MS (Applied Biosystems: API3000). Drug-derived ions were detected by selected reaction monitoring based on electrospray ionization in a positive ion mode. From peak areas in the resulting extracted ion chromatogram, drug concentrations in the homogenate were calculated by the internal standard method.
The internal standard here used was compound 11 disclosed in WO2007/136116.

Data set [3] deals with rats with constipation induced by low-fiber diet. Kind of data set: Test 1: ameliorating effect on constipation models fed on low-fiber diet. The following applies: low-fiber diet constipation model rats, oral in 0.5% MC, dosed twice (0 and 8 h). Here is the method: Test 1: Ameliorating Effect on Constipation Models Fed on Low-Fiber Diet
SD/IGS rats (6-wk old; CHARLES RIVER LABORATORIES JAPAN, INC.) in groups, each consisting of two heads per cage, were fed on a diet with a decreased dietary fiber content of 5% for a week in order to induce constipation. The normal group was fed on a standard diet with 15% dietary fiber (MF diet; ORIENTAL YEAST CO., LTD.) On the day before the test, each rat was measured for body weight and thereafter transferred into an individual cage. Grouping was performed on the basis of the body weights measured on the day before the test. The experimental groups of rats with induced constipation were orally administered compound (I) in a volume of 5 mL/kg body weight as dissolved in 0.5% (w/v) methylcellulose (MC), whereas the control vehicle group was orally administered 0.5% MC only. […] Immediately after the first administration, a stool recovery tray was placed under each cage and starting 2 hours after the administration, stools were recovered every two hours until 24 hours after the administration; the appearance of the recovered stools was observed and their weight was measured. To determine their moisture content, the stools were measured for their wet weight, dried for at least 8 hours at 100° C., measured for dry weight, and its proportion (%) to the wet weight was calculated. […]

As to `COc1cc(C(C)C)c(Cc2ccc(/C=C/C(C)(C)C(=O)NC(C)(C)C(=O)NCCN(C)C)cc2)cc1[C@@H]1O[C@H](CO)[C@@H](O)[C@H](O)[C@H]1O` [Compound (I), (1S)-1,5-anhydro-1-[5-(4-{(1E)-4-[(1-{[2-(dimethylamino)ethyl]amino}-2-methyl-1-oxopropan-2-yl)amino]-3,3-dimethyl-4-oxobut-1-en-1-yl}benzyl)-2-methoxy-4-(propan-2-yl)phenyl]-D-glucitol], the “wet weight of stools” value in data set [1] (stools recovered until 12 hours (FIG. 3)) and in data set [3] (stools recovered until 24 hours (FIG. 1)) was “increased” in each case. In addition, the “moisture content of stools” value in data set [1] (stools recovered until 12 hours (FIG. 4)) and in data set [3] (stools recovered until 24 hours (FIG. 2)) was “increased” each time. Besides, the “dose remaining unaltered in the small intestine and its contents” value in data set [2] (1 hour after drug administration) and in data set [2] (4 hours after drug administration) was “about 75%” throughout. Further, the “Remaining unaltered, cecum/large intestine (including the contents), relative to dose” value in data set [2] (1 hr after dosing) is reported as 0.2 ± 0.3 % of dose; in data set [2] (4 hr after dosing), 33.1 ± 44.5 % of dose; in data set [2] (7 hr after dosing), 84.2 ± 8.8 % of dose. The “Remaining unaltered, small intestine's contents, relative to dose” value in data set [2] (1 hr after dosing) is reported as 70.3 ± 6.7 % of dose; in data set [2] (4 hr after dosing), 69.7 ± 44.9 % of dose; in data set [2] (7 hr after dosing) it was 1.6 ± 1.2 % of dose. Besides, the “Remaining unaltered, small intestine, relative to dose” value in data set [2] (1 hr after dosing) is 4.9 ± 0.6 % of dose; in data set [2] (4 hr after dosing), 6.4 ± 5.3 % of dose; in data set [2] (7 hr after dosing) it was 0.7 ± 0.3 % of dose. Besides, the “Remaining unaltered, total, relative to dose” value is recorded as 75.4 ± 6.3 % of dose in data set [2] (1 hr after dosing), 109.2 ± 10.7 % of dose in data set [2] (4 hr after dosing) and 86.5 ± 9.2 % of dose in data set [2] (7 hr after dosing).
